# Reference: publication PMC7156724, “Potent BRD4 inhibitor suppresses cancer cell-macrophage interaction” (Nature Communications, 2020)
# Values joined by “and” are separate entries in the source; they are usually repeats but may differ in a detail not shown here. Equal values may be shown once.
# Legend:
# ES-2 cells = test: MTT cell growth assay, ES-2; type: cell-based, human; conditions: 5 days
# Experimental: Fig. 2 NHWD-870 inhibited BRD4 phosphorylation and c-MYC expression, and suppressed cell growth. a Representative western blot analysis of p-BRD4 (s484/488), BRD4, c-MYC, and GAPDH after treatment of MDA-MB231, SUM159, A2780 ES-2, and H526 cells with JQ-1 or NHWD-870 at the indicated concentrations for 24 h. GAPDH served as the loading control. Selected from three independent experiments. b MTT assays of H526, A2780, ES-2, and MDA-MB231 cells treated with JQ-1 or NHWD-870 at the indicated concentrations for 5 days. Data are presented as mean ± SEM from three independent experiments. c, d Clonogenic assays of H526, A2780, ES-2 and MDA-MB231 cells treated with 250 nM JQ-1 or NHWD-870 for 5 days. Shown are representative images (c) and quantification of colonies (d). […] Shown are representative images (e) and quantification of relative colony sizes (f). Scale bar, 50 μm. Data are presented as mean ± SEM from five independent experiments. p values were calculated using two-tailed, unpaired t tests in this figure. **p < 0.01; ***p < 0.001. Source data are provided as a Source Data file.
# 37℃, 5% CO2. […]
# [1] = system: TMD8 large B cell lymphoma; test: TMD8 large B cell lymphoma model tumor growth; type: in vivo, mouse; conditions: for Tumor volume: n=6, individual animals
# From the text: PO, oral administration; QD, once daily; BID, twice daily. b–d Tumor growth curves for A2780 ovarian tumor (n = 5) (b), TMD8 large B cell lymphoma (n = 6) (c), and B16F10 melanoma (n = 5) (d) bearing mice treated with the indicated compounds once daily for 11-21 days. e, f Tumor growth curves for A375 melanoma (n = 6) (e), and patient-derived xenograft (PDX) of melanoma (n = 5) (f) bearing mice treated with the indicated compounds once daily (5 days on, 2 days off) for 21 days. For d–f, NHWD-870 used is NHWD-870-HCl synthesized using Suzuki coupling route. Data are presented as mean ± SEM in (a, b, d, f) and mean + SEM in (c, e). p values were calculated using two-tailed, unpaired t tests. *p < 0.05; **p < 0.01; ***p < 0.001. Source data are provided as a Source Data file.
# 4–6 weeks old female BALB/c nude mice were used for most experiments, with the exception of 6–8 weeks old female C57BL/6 mice were used for B16F10 experiments, and 6–8 weeks old male BALB/c nude mice and SD rats were used for pharmacokinetic experiments. All animals were purchased from Shanghai SIPPR-Bk Lab Animal Co., Ltd. All animals were housed under a regimen of 12 h light/12 h dark cycles and specific pathogen-free conditions. 5×10^6 NCI-H526, ES-2, MDA-MB231, A2780, A375, B16F10, and TMD-8 cells (0.1 ml) were injected subcutaneously into female nude mice. The melanoma patient-derived xenograft model was derived from a human melanoma sample (BRAF, NARS and NF1 wild type, and p53 mutant) removed from a patient in Xiangya Hospital. Surgically removed tumor fragments were implanted subcutaneously into female NSG mice. When the tumors grew to ~1000 mm^3, they were harvested and cryopreserved or immediately re-implanted for expansion or experiments. Mouse body weight and tumor sizes were measured every 3 days. Once the tumors grew to 150–200 mm^3, mice were treated with the compounds as described in the Figures. 1 × 10^6 A2780 cells (1 ml) were injected into the abdominal cavity of nude mice. Ascitic volume and tumor weight were measured by an electronic balance. All the procedures were evaluated and approved by the Institutional Animal Care and Use Committee of Central South University and Yale University.
# [2] = Equilibrium dialysis assay, CD-1 mouse plasma
# Experimental: The concentration was calculated using the peak area ratio of analyte and internal […]
# The results were calculated by the following equations:
# % Unbound = 100 *FC / TC, % Bound = 100 * (1-FC / TC)
# % Recovery = 100 * (FC + TC) / T0
# TC = Total compound concentration as determined by the calculated concentration on the retentate side of the membrane
# FC = Free compound concentration as determined by the calculated concentration on the dialysate side of the membrane […]
# Equation of first order kinetics: […]
# 8. Equilibrium dialysis assay. Binding with plasma protein and recovery rate of NHWD-870 were performed with human, CD-1 mouse and SD rat plasma as […]
# described 2. […] The concentration was […]
# calculated using the peak area ratio of analyte and internal standard. The results were calculated by the following equations: % Unbound = 100 *FC / TC, % Bound = 100 * (1-FC / TC); % Recovery = 100 * (FC + TC) / T0; TC = Total compound concentration as determined by the calculated concentration on the retentate side of the membrane; FC = Free compound concentration as determined by the (1 picture or pasted object on this page, not shown here) […]
# calculated concentration on the dialysate side of the membrane; T0 = To t a l compound concentration as determined before dialysis. […]
# 10. hERG channel assay. […]
# HEK293 cell line stably
structure (smiles),measurement,setting,value
Cc1nnn(C)c1-c1cnc2c3c4cnn(C)c4ccc3n([C@H](c3ccccc3)C3CCOCC3)c2c1 [NHWD-870],"MTT assay, relative cell number","ES-2 cells; ES-2, 0.1 nM",0.993 and 0.983 and 0.961
same,"MTT assay, relative cell number","ES-2 cells; ES-2, 1 nM",0.911 and 0.921 and 0.934
same,"MTT assay, relative cell number","ES-2 cells; ES-2, 10 nM",0.355 and 0.301 and 0.382
same,"MTT assay, relative cell number","ES-2 cells; ES-2, 500 nM",0
same,"MTT assay, relative cell number","ES-2 cells; ES-2, 1000 nM",0
same,"MTT assay, relative cell number","ES-2 cells; ES-2, 5000 nM",0
same,"MTT assay, relative cell number","ES-2 cells; ES-2, 10000 nM",0
same,Tumor volume,"[1]; Fig.3c TMD-8, 1.5mg/kg p.o. QD x 21D, day 0",214.469 mm^3 and 165.444 mm^3 and 94.318 mm^3 and 104.496 mm^3 and 146.158 mm^3 and 140.975 mm^3
same,Tumor volume,"[1]; Fig.3c TMD-8, 1.5mg/kg p.o. QD x 21D, day 3",338.876 mm^3 and 252.047 mm^3 and 100.523 mm^3 and 149.534 mm^3 and 223.518 mm^3 and 132.449 mm^3
same,Tumor volume,"[1]; Fig.3c TMD-8, 1.5mg/kg p.o. QD x 21D, day 7",459.258 mm^3 and 449.651 mm^3 and 146.864 mm^3 and 132.276 mm^3 and 263.192 mm^3 and 174.278 mm^3
same,Tumor volume,"[1]; Fig.3c TMD-8, 1.5mg/kg p.o. QD x 21D, day 10",490.697 mm^3 and 432.678 mm^3 and 235.012 mm^3 and 190.412 mm^3 and 150.967 mm^3 and 163.029 mm^3
same,Tumor volume,"[1]; Fig.3c TMD-8, 1.5mg/kg p.o. QD x 21D, day 14",640.246 mm^3 and 434.37 mm^3 and 213.016 mm^3 and 174.551 mm^3 and 71.2181 mm^3 and 175.498 mm^3
same,Tumor volume,"[1]; Fig.3c TMD-8, 1.5mg/kg p.o. QD x 21D, day 17",730.308 mm^3 and 597.229 mm^3 and 374.112 mm^3 and 196.792 mm^3 and 127.555 mm^3 and 127.945 mm^3
same,Tumor volume,"[1]; Fig.3c TMD-8, 1.5mg/kg p.o. QD x 21D, day 21",1151.12 mm^3 and 1193.19 mm^3 and 830.854 mm^3 and 339.119 mm^3 and 375.477 mm^3 and 217.147 mm^3
same,Tumor volume,"[1]; Fig.3c TMD-8, 3mg/kg p.o. QD x 21D, day 0",135.749 mm^3 and 160.378 mm^3 and 111.097 mm^3 and 215.602 mm^3 and 96.5 mm^3 and 162.39 mm^3
same,Tumor volume,"[1]; Fig.3c TMD-8, 3mg/kg p.o. QD x 21D, day 3",210.016 mm^3 and 166.954 mm^3 and 177.118 mm^3 and 367.777 mm^3 and 150.727 mm^3 and 208.299 mm^3
same,Tumor volume,"[1]; Fig.3c TMD-8, 3mg/kg p.o. QD x 21D, day 7",347.833 mm^3 and 254.452 mm^3 and 292.586 mm^3 and 297.998 mm^3 and 182.149 mm^3 and 258.854 mm^3
same,Tumor volume,"[1]; Fig.3c TMD-8, 3mg/kg p.o. QD x 21D, day 10",278.167 mm^3 and 325.57 mm^3 and 336.135 mm^3 and 344.695 mm^3 and 159.095 mm^3 and 292.996 mm^3
same,Tumor volume,"[1]; Fig.3c TMD-8, 3mg/kg p.o. QD x 21D, day 14",177.492 mm^3 and 209.22 mm^3 and 327.654 mm^3 and 243.833 mm^3 and 100.203 mm^3 and 228.258 mm^3
same,Tumor volume,"[1]; Fig.3c TMD-8, 3mg/kg p.o. QD x 21D, day 17",203.37 mm^3 and 180.739 mm^3 and 317.134 mm^3 and 320.512 mm^3 and 84.6294 mm^3 and 268.501 mm^3
same,Tumor volume,"[1]; Fig.3c TMD-8, 3mg/kg p.o. QD x 21D, day 21",566.866 mm^3 and 363.185 mm^3 and 475.409 mm^3 and 503.514 mm^3 and 313.1 mm^3 and 324.211 mm^3
same,effect on tumor growth,"[1]; TMD8 large B cell lymphoma model, compared with Ibrutinib",stronger tumor-suppressive effects
same,fraction unbound,"[2]; CD-1, mouse, plasma",0.026
same,recovery,"[2]; CD-1, mouse, plasma",95.2%
same,% Bound,"[2]; CD-1 mouse plasma, equilibrium dialysis",97.4%
